Data published in patent US20050169912A1, “Immunogenic peptides and uses thereof” (priority 2001, published 2005).

Test system: antibody in sera from Helicobacter pylori infected patients and healthy control subjects
Assay: Immunoassay detecting serum antibodies specific for individual peptide antigens
Format: binding, human
Conditions: for ability of peptide to identify Helicobacter pylori infected individuals: 30 infected patients vs 30 healthy controls, threshold control mean plus 2.5 standard deviations; for functional specificity for the H. pylori protein: candidate sequences tested, FIGS. 4 and 5
Source text: 1. Possible Outcomes for Peptides Screened as Antigens in Serum Antibody Assays:
1. A positive result indicating the presence of a peptide-specific antibody in patient biological fluid samples, absent evidence of antibody in samples from subjects without the microorganism or autoimmune disease (FIG. 3) indicates the tested peptide is a specific peptide (immunogen) for a targeted protein.
3. No difference in positive antibody levels between patients and subjects without disease.
2. Immunoassay Method 1: Used to Detect Serum IgA, IgD, IgE, IgG, and IgM Antibodies Specific for Individual Peptide Antigens
(§1) Peptide solution: 0.06 μg/mL peptide dissolved in 20 mM Tris chloride, pH 7.4, containing 600 mM sodium chloride, 30 mg/mL polyethylene glycol 4000, 1 mm ethylenediaminetetraacetic acid, 1 mM ethylene glycol-bis(§-aminoethyl ether)N,N,N′,N′-tetraacetic acid, 0.5 mg/mL triton x-405 and 0.2 mg/mL thimerosal.
as §1, with “Control peptide” for “Peptide”, “0.013” for “0.06”, “μg/mL control” for “μg/mL”
Conjugate solution: 0.100 μg/mL alkaline phosphatase conjugated polyclonal goat anti human IgG dissolved in 20 mM Tris-HCL, pH 7.40, with 600 mM sodium chloride, 30.0 mg/mL peg-4000, 3.0 mg/mL BSA, 0.5 mg/mL triton x-405 and 0.20 mg/mL thimerosal.
Substrate solution: 25.2 μg/mL 4-methylumbelliferyl phosphate dissolved in 180 mM 2-amino-2-methyl-1-propanol, pH 9.50, containing 123 μM magnesium chloride.
Serum preparation: • 1. Add 100 μl serum to 15 neutravidin^a coated paper discs in a suitably sized test tube. • 2. Incubate with gentle mixing at ambient temperature for 16-20 hours. • 3. Add 7.9 mL of serum diluent and mix gently for 30 minutes. • 4. Vortex the tube gently to completely release the serum from the discs. • 5. Remove the treated serum from the discs and transfer it to a suitable storage tube. • 6. Store the treated serum at 4 EC.
Assay procedure: • 1. Two days before assay, aspirate the storage solution from the NeutrAvidin^a coated white microtiter plate and add 200 μl plate blocking solution to each well. • 2. Cover the plate and incubate at ambient temperature for 16-20 hours. • 3. One day before assay. Wash the blocked plate three times with plate wash buffer, approximately 275 μl per well per wash. Aspirate the final wash and add 100 μl peptide solution or 100 μl control peptide solution to the appropriate wells of the plate. • 4. Cover the plate and incubate with gentle mixing at ambient temperature for 16-20 hours. • 5. Day of assay, wash the blocked plate three times with plate wash buffer, approximately 275 μl per well per wash. Aspirate the final wash and add 100 μl treated serum to the appropriate wells of the plate. • 6. Cover the plate and incubate at 25 EC for 2 hours. • 7. Wash the blocked plate six times with plate wash buffer, approximately 275 μl per well per wash. Aspirate the final wash and add 100 μl conjugate solution to each assay well. • 8. Cover the plate and incubate at 25 EC for 1.5 hours. • 9. Wash the blocked plate six times with plate wash buffer, approximately 275 μl per well per wash. Aspirate the final wash and add 100 μl substrate solution to each assay well. • 10. Read the plate at 30 and 60 minutes in a fluorescence microtiter plate reader set at 365 nm excitation and 450 nm emission. 3. Biotinylation of Human Serum Albumin

QKDAKELKGKRN
ability of peptide to identify Helicobacter pylori infected individuals: does not serve to identify Helicobacter pylori infected individuals | functional specificity for the H. pylori protein: not functionally specific

QKDAKECKGKRN
ability of peptide to identify Helicobacter pylori infected individuals: does not serve to identify Helicobacter pylori infected individuals

MQEIDKKLTQKN
detection of fluids from infected persons (Example 1, FIGS. 3-5): detected fluids from infected persons | Helicobacter pylori infected individuals identified by the peptide (sera from 30 H. pylori infected patients, positive/negative threshold control mean): three | control sera identified as positive for the peptide (sera from 30 healthy control subjects, antibodies to the peptide): no control sera were incorrectly identified as positive

KNLESYQKDA
functional specificity for the H. pylori protein: not functionally specific
